Measurements: patent US20180177724A1, “SITE-TARGETED NANO-LIPOSOMAL NITROGLYCERIN THERAPEUTICS” (The Regents of the University of California, priority 2015, published 2018)
Read-outs that look alike come from different tables or passages of the source.

What was measured:
[1] = tested on: endothelial NO production; experiment: EC-secreted (extracellular) NO by Nitric Oxide Analyzer (NOA); type: cell-based, human; details: NTG 5 μM, L-NIO-treated ECs
Procedure: (§1) Two independent methods were used to measure the amount of NO produced by ECs. In the first method, ECs were treated overnight with L-NIO (5 mM)±NTG (5 μM) or NTG-NL (10 μg/mL), followed by incubation with a NO-sensitive fluorescent dye DAF-FM diacetate (2 μM; Life Technologies, USA) for 20 minutes at 37° C. Following dye loading, ECs were again treated with L-NIO and NTG during a recovery phase for an additional 1 h in regular growth medium. EC culture media was then rinsed once with Krebs-Henseleit Buffer (KHB) containing 125 mM NaCl, 4.74 mM KCl, 2.5 mM CaCl2, 1.2 mM KH2PO4 1.2 mM MgSO4, 5 mM NaHCO3 and 10 mM Glucose (Sigma Aldrich, USA), replaced with fresh KHB and immediately subjected to live cell fluorescence imaging using Nikon Eclipse Ti microscope. At least 30 cells per condition were analyzed for total cell fluorescence using ImageJ software (NIH). For the second method, a Nitric Oxide Analyzer (NOA; Sievers, USA) was used to measure EC-secreted NO in culture medium. For this measurement, confluent ECs were treated overnight with either L-NIO (5 mM)±NTG (5 μM) or NTG alone, followed by sequential 1 h incubations with KHB without and with L-NIO±NTG at 37° C. KHB conditioned medium (4 replicates per condition) was then collected and analyzed using NOA.

[2] = tested on: U937 monocytic cell adhesion to L-NIO-treated ECs; experiment: Monocyte adhesion assay, L-NIO-treated (NO-deficient) ECs; type: cell-based, human; details: for U937 cell-EC adhesion after 4 hr treatment: L-NIO
Procedure: Human microvascular endothelial cells (HMEC-1) were purchased from the Center for Disease Control (CDC) and cultured on gelatin-coated tissue culture dishes in growth medium composed of MCDB-131 (VWR International, USA) supplemented with 10% FBS (Fisherbrand, USA), 2 mM L-Glutamine (Invitrogen, USA), 1× antimycotic/antibiotic mixture (Life Technologies, USA), 10 ng/mL huEGF (Millipore, USA) and 1 μg/mL Hydrocortizone (Sigma Aldrich, USA). Human U937 monocyte cells were purchased from ATCC (Manassas, Va., USA) and cultured in suspension in growth medium composed of RPMI 1640 (Fisherbrand, USA) supplemented with 2 mM L-Glutamine (Invitrogen), 10 mM HEPES (Fisherbrand, USA), 10% FBS (Fisherbrand), antimycotic/antibiotic mixture (Life Technologies, USA), 1 mM sodium pyruvate (Life Technologies, USA) and 4.5 mg/mL glucose (Sigma Aldrich, USA).
After 30 min of monocyte-EC interaction at 37° C., monocyte suspension was removed and the EC monolayers gently rinsed twice with PBS (to remove unbound monocytes) prior to fixation in 1% paraformaldehyde (PFA; Electron Microscopy Sciences, USA). Fluorescent images (10 per condition) of labeled U937 cells were then acquired using a Nikon Eclipse Ti microscope (Nikon, Japan) fitted with a Nikon Digital Sight DS-Qi1Mc camera and the number of adherent monocytes was counted using ImageJ software (NIH).

[3] = tested on: endothelial NO production; experiment: Intracellular NO by DAF-FM diacetate fluorescence; type: cell-based, human; details: NTG 5 μM
Procedure: as §1

[4] = tested on: endothelial mitochondrial superoxide; experiment: Endothelial mitochondrial superoxide production (MitoSOX); type: cell-based, human; details: free NTG 100 μM (20-fold above effective dose), L-NIO-treated ECs
Procedure: ECs were plated at sub-confluence on gelatin-coated MatTek dishes under normal culture conditions and subjected to overnight treatment with either L-NIO (3 mM)±[NTG (5, 25, or 100 μM) or NTG-NL (5, 50 or 100 μg/mL)]. To detect mitochondrial superoxide, ECs were labeled with MitoSOX™ (Life Technologies, USA), a mitochondrial superoxide-sensitive fluorescent dye that is widely used to measure mitochondrial ROS production under various conditions, including NTG treatment. ECs were labeled with MitoSOX™ Red at a final dose of 5 μM in KHB for 10 minutes at 37° C., rinsed three times with KHB to remove excess dye and placed at 37° C. in KHB for an additional 10 minutes prior to live cell imaging. Fluorescence images (six per condition) were acquired using Nikon Eclipse Ti microscope and total cell fluorescence intensity from at least 20 cells was analyzed using ImageJ software.

[5] = tested on: isolated sheep pulmonary arteries; experiment: Pulmonary artery ring isometric tension: NTG-induced vasorelaxation after pretreatment
Procedure: All animal procedures were in accordance with the Animal Welfare Act, the Guiding Principles in the Care and Use of Animals approved by the Council of the American Physiological Society, the National Institutes of Health Guide for the Care and Use of Laboratory Animals, and Loma Linda University Institutional Animal Care and Use Committee (IACUC). Pregnant ewes were anesthetized with ketamine (10 mg/kg, IV) and midazolam (5 mg/kg, IV) and anesthesia maintained with inhalation of 1-3% isofluranein O2 throughout surgery as required. Ewes and Fetuses were euthanized with an overdose of Euthasol (pentobarbital sodium, 100 mg/kg) and phenytoin sodium (10 mg/kg; Virbac, Ft. Worth, Tex.).
To assess arterial vasorelaxation in response to NTG treatment, pulmonary arteries (4th-5th order) were harvested from newborn fetal sheep (gestational period between 138-141 days), dissected free of parenchyma and cut into 5 mm long rings (at least 8 per condition) in ice-cold HEPES buffer (Sigma Aldrich, USA). […] Following treatment, rings were mounted onto tungsten wires under 0.5 g of resting tension in organ baths containing KHB, gassed with 95% O2-5% CO2, and maintained at 37° C. Arterial rings were rinsed once with KHB, allowed to equilibrate for at least 30 minutes, and re-tensioned prior to addition of 125 mM KCl (Sigma Aldrich, USA) to ensure rings were still functional. Rings were rinsed three times to remove KCl, allowed to relax, and preconstricted with 10 μM Serotonin (Tocris Bioscience, USA) to achieve 100% contraction. Rings were then exposed to increasing concentrations of free NTG (1 nM to 100 μM) and subsequent recordings of concentration-response curves were acquired using a force displacement transducer (AD Instruments, New Zealand) and analyzed using Prism (Graphpad Software Inc).

[6] = in vivo; cited from earlier work
[7] = tested on: endothelial ICAM-1 clustering; experiment: ICAM-1 clustering in U937 cell-EC co-cultures; type: cell-based, human; details: NTG 5 μM
Procedure: ECs were grown to confluence on glass coverslips under normal growth conditions and treated with L-NIO (5 mM)±[NTG (5 μM) or NTG-NL (5 μg/mL)] for 24 h. Next, a monocyte adhesion assay was performed (as described earlier) and the monocyte-EC co-cultures fixed, permeabilized with 0.1% Triton X-100, blocked with 2% bovine serum albumin (BSA; Millipore, USA), and sequentially incubated with primary anti-ICAM-1 mouse antibody (Santa Cruz Biotechnology, USA) and secondary FITC-conjugated DyLight 488 anti-mouse IgG (Vector Labs, USA). To visualize actin microfilaments, monocyte-EC co-cultures were incubated with Alexa Fluor 594-Phalloidin (BD Biosciences, USA). Coverslips were mounted onto glass slides and fluorescence images (15 per condition) were taken using a Nikon Eclipse Ti microscope fitted with a Nikon Digital Sight DS-Qi1Mc camera. ICAM-1 clustering index was determined using ImageJ by normalizing the total monocyte fluorescence (from at least 30 cells) to the background of the surrounding EC cytoplasm.

## O=[N+]([O-])OCC(CO[N+](=O)[O-])O[N+](=O)[O-] [NTG, Nitroglycerin]
[1]
  recovery of EC-dependent (extracellular) NO production: complete recovery
[2]
  effect on U937 monocytic cell adhesion to ECs: dose-dependent inhibition
[2]; Homo sapiens, U-937, read-out: EC50, inhibition of human monocyte adhesion to NO-deficient human microvascular ECs
  EC50: 0.64 µM
[2]; L-NIO-treated ECs, adhesion back to level of untreated ECs
  effective anti-inflammatory NTG dose: 5 µM
[2]; NTG 5 μM
  U937 cell-EC adhesion after 4 hr treatment: significant inhibition of U937 cell-EC adhesion
[2]; free NTG 100 μM
  U937 cell-EC adhesion after 4 hr treatment: loses its therapeutic effect
[2]; free NTG 100 μM, L-NIO-treated ECs
  loss (decrease) in anti-inflammatory effect at high dose: ~2 fold
[2]; listed as Free NTG
  anti-inflammatory effect of free NTG at the amount equivalent to NTG-NL: does not produce a significant anti-inflammatory effect
[2]; listed as free NTG
  anti-inflammatory effect of free NTG at the amount equivalent to NTG-NL: failed to produce a significant anti-inflammatory effect
[3]
  recovery of intracellular NO in L-NIO-treated cells: 79%
[4]
  increase in mitochondrial superoxide formation: 2 fold
[5]; Ovis aries, read-out: Mean IC50 of NTG-induced relaxation, arteries pretreated 4 h with free NTG 5 μM
  IC50: 0.25 µM
[5]; Ovis aries, read-out: Mean IC50 of NTG-induced relaxation, arteries pretreated 4 h with free NTG 100 μM
  IC50: 15 µM
[5]; Ovis aries, read-out: −Log IC50 of NTG-induced relaxation, arteries pretreated 4 h with free NTG 5 μM (converted), mean ± SEM
  IC50: 0.251 µM
[5]; Ovis aries, read-out: −Log IC50 of NTG-induced relaxation, arteries pretreated 4 h with free NTG 100 μM (converted), mean ± SEM
  IC50: 15.5 µM
[5]; arteries pretreated 4 h with free NTG 5 μM, mean ± SEM
  Maximal Relaxation (%): 69 ± 4 %
[5]; arteries pretreated 4 h with free NTG 100 μM, mean ± SEM
  Maximal Relaxation (%): 66 ± 9%
[5]; read-out: Mean IC50 of NTG-induced relaxation, arteries pretreated 4 h with free NTG 100 μM
  IC50: 15.5 µM
[6]
  time of clearance of NTG from bloodstream: 15 to 30 min
[7]
  effect on ICAM-1 clustering induced by L-NIO: inhibited
